Where two headings read alike, the source gives them in different places.
Experiments:
[1] = system: Klebsiella pneumoniae ATCC BAA-1705; details: for Avg. Log CFU/g thigh: BID; for decrease in CFU number in thighs in comparison to the vehicle control group: doses of 16 and 64 mg/kg (SC, BID)
Procedure: 4.2 Murine Neutropenic Thigh Model of Infection (Kiebsiella Pneumoniae ATCC BAA-1705)
All animal-related research is conducted in accordance with 2010/63/EU and National legislation regulating the use of laboratory animals in scientific research and for other purposes (Official Gazette 55/13).
In vivo studies and CFU determination were performed by Fidelta (Zagreb, Croatia) and all mice were obtained from Charles River Laboratories (Italy).
Two compounds, i.e. ABX5006 and ABX5020, and a comparator antibiotic (amikacin sulfate; Cat. No. 01693, Chem-Impex) were tested in a mouse model of thigh infection with Klebsiella pneumoniae ATCC BAA-1705.
Neutropenic thigh model: Pathogen-free male CD-1 mice (6 mice per dosing group) weighing 36±4 g were used. Prior to infection, neutropenia was induced in mice by two cyclophosphamide doses applied intraperitoneally four days (150 mg/kg body weight) and one day prior to infection (100 mg/kg body weight). […] For subcutaneous treatment, pre-weighed test item powder (ABX5006) was dissolved in PBS and the pH was adjusted (to reach a near-neutral pH), to reach a final concentration of 6.4 mg/mL for a dose of 64 mg/kg (group 3) or 1.6 mg/mL for a dose of 16 mg/kg (group 2). For subcutaneous treatment, pre-weighed test item powder (ABX5020) was dissolved in PBS and the pH was adjusted (to reach a near-neutral pH), to reach a final concentration of 6.4 mg/mL for a dose of 64 mg/kg (group 7) or 1.6 mg/mL for a dose of 16 mg/kg (group 6). For subcutaneous treatment, pre-weighed reference compound (amikacin sulfate) was dissolved in PBS and the pH was adjusted (to reach a near-neutral pH), to reach a final concentration of 6.4 mg/mL for a dose of 64 mg/kg (group 5) or 1.6 mg/mL for a dose of 16 mg/kg (group 4). Each mouse was infected with Klebsiella pneumoniae ATCC BAA-1705 (1.18×10^6/thigh), under light ketamine/xylazine anesthesia, by intramuscular administration of 0.10 mL of a suspension containing bacteria into both thighs. Animals were dosed subcutaneously twice with 8 h interval. Treatment was started 1 h following infection either with Vehicle—PBS (group 1) or amikacin sulfate (groups 4-5) or test compounds (groups 2-3 and 6-7) as described above. All Mice were overdosed with ketamine/xylazine 24 hours post infection. Thighs were aseptically removed and separately placed into sterile Precellys test tubes containing 2 mL of sterile PBS. Precellys test tubes were weighed and the weight was recorded prior and post-sampling. Each thigh was homogenized in sterile PBS using Ultraturax, IKA. After homogenizing, a serial dilution of the homogenates was used for CFU determination. A CFU count of each thigh acted as a single result.
Supplies/Chemicals. BBL™ Mueller Hinton Broth (REF 275730, Becton Dickinson); BBL™ Mueller Hinton Agar 2 (REF 211438, Becton Dickinson); PBS (Cat. No. P4417, Sigma); Saline (Serial No. 1422115, HZ™); Xylazine 2% (Alfasan, International B.V.); Narkamon (100 mg/mL ketamine chloride, Bioveta); Cyclophosphamide monohydrate (No. C2236, TCI); Sterile, single use needles (BD MICROLANCE Kanuele, 27 G, REF 300220, Becton Dickinson); 5 mL syringes (BD Plastipak, REF 300013, Becton Dickinson).
Anesthesia. 1 mL of Narkamon, 0.2 mL of Xylazine and 9 mL of saline; Dose volume: 10 mL/kg body weight.
Inoculum preparation for intramuscular infection. The strain was streaked out onto MH agar. On the following day Mueller-Hinton broth was inoculated with several colonies of Klebsiella pneumoniae and incubated at 37° C. in an orbital shaker until log phase of growth was reached (OD600=0.6). Log bacteria was centrifuged and suspended in equal volume of sterile PBS and subsequently diluted to obtain a bacterial suspension of adequate inoculum size.

[2] = system: Klebsiella pneumoniae ATCC 43816; test: Murine neutropenic thigh model of infection; type: in vivo, male CD-1 mice; details: for Avg. Log CFU/g thigh: 24 h post infection; for survival rate: first study, vehicle group 50% mortality; for Avg. Log CFU/g: thigh, 24 hours post infection
Procedure: 4.1 Murine Neutropenic Thigh Model of Infection (Kiebsiella Pneumoniae ATCC 43816)
A comparator antibiotic (meropenem; Cat. No. 1392454, USP) was used during both studies.
During the first study ABX5006 and ABX5020 were tested at a dose of 64 mg/kg (group 5 for ABX5006, group 8 for ABX5020), 16 mg/kg (group 4 for ABX5006, group 7 for ABX5020) and of 4 mg/kg (group 3 for ABX5006, group 6 for ABX5020).
During a second study ABX5026 and ABX5039 were tested at a dose of 4 mg/kg (group 5 for ABX5026, group 8 for ABX5039), 1 mg/kg (group 4 for ABX5026, group 7 for ABX5039) and of 0.25 mg/kg (group 3 for ABX5026, group 6 for ABX5039).
Animals were dosed subcutaneously (10 mL/kg) twice with 8 h interval. […] A CFU count below limit of detection (LOD=1.0×10^2 CFU/mL) was substituted with the value 0 in order to perform statistical analysis.
Inoculum preparation for intramuscular infection. The strain was streaked out onto MH agar.

[3] = Log CFU/g thigh, dose 4 mg/kg SC BID
[4] = Log CFU/g thigh, dose 16 mg/kg SC BID
[5] = Log CFU/g thigh, dose 64 mg/kg SC BID
[6] = dose 0.25 mg/kg, SC, BID, Avg. Log CFU/g thigh vs vehicle
[7] = dose 1 mg/kg, SC, BID, Avg. Log CFU/g thigh vs vehicle
[8] = dose 4 mg/kg, SC, BID, Avg. Log CFU/g thigh vs vehicle

SMILES | Avg. Log CFU/g thigh ([1]; dose 16 mg/kg, SC) [Log CFU/g] | Avg. Log CFU/g thigh ([1]; dose 64 mg/kg, SC) [Log CFU/g] | decrease in CFU number in thighs in comparison to the vehicle control group [1] | animals euthanized prior to second dose due to weak clinical condition ([1]; infected neutropenic mice, SC) | Change from vehicle group [2, 3] | Change from vehicle group [2, 4] | Change from vehicle group [2, 5] | Avg. Log CFU/g thigh ([2]; dose 4 mg/kg SC BID) [Log CFU/g] | Avg. Log CFU/g thigh ([2]; dose 16 mg/kg SC BID) [Log CFU/g] | Avg. Log CFU/g thigh ([2]; dose 64 mg/kg SC BID) [Log CFU/g] | survival rate [2] [%] | Change from vehicle group [2, 6] | Avg. Log CFU/g ([2]; dose 0.25 mg/kg, SC, BID) [Log CFU/g] | CFU count reduction in comparison to the vehicle control group ([2]; dose 1 mg/kg SC BID) [log 10] | Change from vehicle group [2, 7] | Avg. Log CFU/g ([2]; dose 1 mg/kg, SC, BID) [Log CFU/g] | Change from vehicle group [2, 8] | Avg. Log CFU/g ([2]; dose 4 mg/kg, SC, BID) [Log CFU/g] | CFU count reduction in comparison to the vehicle control group ([2]; dose 4 mg/kg SC BID) [log 10]
NCC[C@H](O)C(=O)N[C@@H]1C[C@H](N)[C@@H](O[C@H]2O[C@H](CN)[C@@H](O)[C@H](O)[C@H]2O)[C@H](O)[C@H]1O[C@H]1O[C@H](CO)[C@@H](O)[C@H](N)[C@H]1O [Amikacin, amikacin, reference compound] | 8.19 | 7.24 | did not significantly decrease CFU counts in thighs | – | – | – | – | – | – | – | – | – | – | – | – | – | – | – | –
N=C(NCCN)NC1C(O)[C@@H](CO)OC(OC2C(F)[C@H](O[C@H]3OC(CN)[C@@H](O)CC3N)C(N)C[C@H]2NC(=O)[C@@H](O)CCN)[C@@H]1O (stereo partly drawn) [ABX5020, Tobra-AHB-F-Gua-2-amino-ethyl] | 6.18 | 5.29 | 2.7-3.6 log 10 | Two animals | −8.04 | −8.14 | −9.32 | 1.47 | 1.37 | 0.19 | 100 | – | – | – | – | – | – | – | –
N=C(NC[C@@H]1CCNC1)NC1[C@@H](O)C(OC2[C@@H](F)[C@H](O[C@H]3OC(CN)[C@@H](O)CC3N)C(N)C[C@H]2NC(=O)[C@@H](O)CCN)O[C@H](CO)[C@H]1O (stereo partly drawn) [ABX5039, Tobra-AHB-F-Gua (R) pyrrolidine-3-ylmethyl] | – | – | – | – | – | – | – | – | – | – | – | 0.70 | 9.08 | > 4 | 4.71 | 5.07 | 7.55 | 2.23 | –
N=C(N)NC1C(O)[C@@H](CO)OC(OC2C(F)[C@H](O[C@H]3OC(CN)[C@@H](O)CC3N)C(N)C[C@H]2NC(=O)[C@@H](O)CCN)[C@@H]1O (stereo partly drawn) [ABX5006, Tobra-AHB-F-Gua] | 6.08 | 5.69 | 2.8-3.2 log 10 | – | −7.05 | −8.36 | −9.13 | 2.47 | 1.15 | 0.38 | 100 | – | – | – | – | – | – | – | 7
N=C(NC[C@@H]1CCCN1)NC1[C@@H](O)C(OC2[C@@H](F)[C@H](O[C@H]3OC(CN)[C@@H](O)CC3N)C(N)C[C@H]2NC(=O)[C@@H](O)CCN)O[C@H](CO)[C@H]1O (stereo partly drawn) [ABX5026, Tobra-AHB-F-Gua (S) pyrrolidine-2-yl-methyl] | – | – | – | – | – | – | – | – | – | – | – | 1.80 | 7.98 | > 6 | 6.44 | 3.34 | 7.56 | 2.22 | –

Source: patent US20220127297A1, “Novel Antibacterial 3"-Derivatives Of 4,6-Disubstituted 2,5-Dideoxystreptamine Aminoglycoside Antibiotics” (AGILeBiotics B.V., priority 2018, published 2022)
